Assay results taken from patent publication US8796289B2 (AbbVie Inc., priority 2011, dated 2014).
pKi: −log10 of the molar value.

molecular target: GST-tagged-Wee1 kinase (Homo sapiens, UniProt P30291); assay: Wee1 time-resolved fluorescence equilibrium binding assay (displacement of Oregon Green-labeled ATP-competitive kinase probe)
Experimental: Wee1 kinase was assayed using a time-resolved fluorescence equilibrium binding assay monitoring displacement of a rapidly reversible Oregon Green-labeled ATP-competitive kinase probe (N-(2-(2-(2-(4-(4-(5-chloro-4-(2-(1-hydroxycyclobutyl)thiazol-5-yl)-1H-pyrrolo[2,3-b]pyridin-2-yl)phenyl)piperazin-1-yl)ethoxy)ethoxy)ethyl)-2′,7′-difluoro-3′,6′-dihydroxy-3-oxo-3H-spiro[isobenzofuran-1,9′-xanthene]-5-carboxamide) by competitive Wee1 inhibitors.

Chain of GST-tagged-Wee1 kinase (P30291 whole entry): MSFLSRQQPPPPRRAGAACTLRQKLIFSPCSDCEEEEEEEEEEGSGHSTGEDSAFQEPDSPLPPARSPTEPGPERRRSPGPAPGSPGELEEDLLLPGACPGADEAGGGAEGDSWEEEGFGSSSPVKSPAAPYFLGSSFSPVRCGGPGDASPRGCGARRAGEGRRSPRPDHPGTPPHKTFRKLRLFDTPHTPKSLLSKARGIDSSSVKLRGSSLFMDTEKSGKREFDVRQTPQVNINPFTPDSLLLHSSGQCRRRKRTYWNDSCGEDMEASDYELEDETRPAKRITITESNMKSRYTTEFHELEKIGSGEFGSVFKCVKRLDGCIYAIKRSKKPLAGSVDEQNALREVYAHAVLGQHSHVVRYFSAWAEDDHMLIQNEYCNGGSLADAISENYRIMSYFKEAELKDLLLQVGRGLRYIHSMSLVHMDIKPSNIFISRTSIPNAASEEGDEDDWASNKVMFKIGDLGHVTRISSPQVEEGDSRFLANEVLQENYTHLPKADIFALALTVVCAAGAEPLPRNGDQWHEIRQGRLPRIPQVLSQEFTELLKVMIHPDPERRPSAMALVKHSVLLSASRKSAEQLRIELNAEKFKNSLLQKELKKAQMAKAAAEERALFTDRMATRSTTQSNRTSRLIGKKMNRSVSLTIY

pKi | Structure (SMILES)
8.10 | Cc1ccccc1-n1nc(-c2ccco2)c2nc(Nc3ccc(N4CCCC4=O)cc3)ncc2c1=O [Example 135, 8-(2-furyl)-6-(2-methylphenyl)-2-{[4-(2-oxopyrrolidin-1-yl)phenyl]amino}pyrimido[4,5-d]pyridazin-5(6H)-one]
7.85 | C=CCn1nc(-c2ccco2)c2nc(Nc3ccc(N4CCN(C(C)C)CC4)c(OC)c3)ncc2c1=O [Example 136, 6-allyl-8-(2-furyl)-2-{[4-(4-isopropylpiperazin-1-yl)-3-methoxyphenyl]amino}pyrimido[4,5-d]pyridazin-5(6H)-one]
7.66 | C=CCn1nc(-c2ccco2)c2nc(Nc3ccc(CN(C)C)cc3)ncc2c1=O [Example 137, 6-allyl-2-({4-[(dimethylamino)methyl]phenyl}amino)-8-(2-furyl)pyrimido[4,5-d]pyridazin-5(6H)-one]
8.82 | COc1cc(Nc2ncc3c(=O)n(-c4ccccc4C)nc(-c4ccco4)c3n2)ccc1N1CCN(C(C)C)CC1 [Example 138, 8-(2-furyl)-2-{[4-(4-isopropylpiperazin-1-yl)-3-methoxyphenyl]amino}-6-(2-methylphenyl)pyrimido[4,5-d]pyridazin-5(6H)-one]
8.30 | C=CCn1nc(-c2ccccc2)c2nc(Nc3ccc(N4CCN(C(C)C)CC4)cc3)ncc2c1=O [Example 139, 6-allyl-2-{[4-(4-isopropylpiperazin-1-yl)phenyl]amino}-8-phenylpyrimido[4,5-d]pyridazin-5(6H)-one]
< 5.50 | C=CCn1nc(-c2ccco2)c2nc(Nc3ccc(S(=O)(=O)N4CCOCC4)cc3)ncc2c1=O [Example 140, 6-allyl-8-(2-furyl)-2-{[4-(morpholin-4-ylsulfonyl)phenyl]amino}pyrimido[4,5-d]pyridazin-5(6H)-one]
8.15 | Cc1ccccc1-n1nc(-c2ccccc2)c2nc(Nc3ccc(N4CCCC4=O)cc3)ncc2c1=O [Example 141, 6-(2-methylphenyl)-2-{[4-(2-oxopyrrolidin-1-yl)phenyl]amino}-8-phenylpyrimido[4,5-d]pyridazin-5(6H)-one]
7.24 | C=CCn1nc(-c2ccccc2)c2nc(Nc3ccc(N4CCCC4=O)cc3)ncc2c1=O [Example 142, 6-allyl-2-{[4-(2-oxopyrrolidin-1-yl)phenyl]amino}-8-phenylpyrimido[4,5-d]pyridazin-5(6H)-one]
7.41 | C=CCn1nc(-c2ccccc2)c2nc(Nc3ccc(CN(C)C)cc3)ncc2c1=O [Example 143, 6-allyl-2-({4-[(dimethylamino)methyl]phenyl}amino)-8-phenylpyrimido[4,5-d]pyridazin-5(6H)-one]
8.70 | C=CCn1nc(-c2ccco2)c2nc(Nc3ccc4c(c3)CN(C)CC43CC3)ncc2c1=O [Example 144, 6-allyl-8-(2-furyl)-2-[(2′-methyl-2′,3′-dihydro-1′H-spiro[cyclopropane-1,4′-isoquinolin]-7′-yl)amino]pyrimido[4,5-d]pyridazin-5(6H)-one]
9.52 | Cc1ccccc1-n1nc(-c2ccco2)c2nc(Nc3ccc4c(c3)CN(C)CC43CC3)ncc2c1=O [Example 145, 8-(2-furyl)-2-[(2′-methyl-2′,3′-dihydro-1′H-spiro[cyclopropane-1,4′-isoquinolin]-7′-yl)amino]-6-(2-methylphenyl)pyrimido[4,5-d]pyridazin-5(6H)-one]
8.52 | C=CCn1nc(-c2ccco2)c2nc(Nc3ccc(N4CCN(C(C)C)CC4)c(C)c3)ncc2c1=O [Example 146, 6-allyl-8-(2-furyl)-2-{[4-(4-isopropylpiperazin-1-yl)-3-methylphenyl]amino}pyrimido[4,5-d]pyridazin-5(6H)-one]
7.92 | CC(C)N1CCCC(c2nn(-c3c(Cl)cccc3Cl)c(=O)c3cnc(Nc4ccc(N5CCN(C)CC5)cc4)nc23)C1 (stereo not drawn) [Example 147, 6-(2,6-dichlorophenyl)-8-(1-isopropylpiperidin-3-yl)-2-{[4-(4-methylpiperazin-1-yl)phenyl]amino}pyrimido[4,5-d]pyridazin-5(6H)-one]
7.80 | CN1CCN(c2ccc(Nc3ncc4c(=O)n(-c5c(Cl)cccc5Cl)nc(C5CCNCC5)c4n3)cc2)CC1 [Example 148, 6-(2,6-dichlorophenyl)-2-{[4-(4-methylpiperazin-1-yl)phenyl]amino}-8-(piperidin-4-yl)pyrimido[4,5-d]pyridazin-5(6H)-one]
10.30 | CN1Cc2cc(Nc3ncc4c(=O)n(-c5c(Cl)cccc5Cl)nc(-c5cnn(C)c5)c4n3)ccc2C2(CC2)C1 [Example 149, 6-(2,6-dichlorophenyl)-2-[(2′-methyl-2′,3′-dihydro-1′H-spiro[cyclopropane-1,4′-isoquinolin]-7′-yl)amino]-8-(1-methyl-1H-pyrazol-4-yl)pyrimido[4,5-d]pyridazin-5(6H)-one]
10.00 | Cc1cc(Nc2ncc3c(=O)n(-c4c(Cl)cccc4Cl)nc(-c4cnn(C)c4)c3n2)ccc1N1CCCN(C)CC1 [Example 150, 6-(2,6-dichlorophenyl)-2-{[3-methyl-4-(4-methyl-1,4-diazepan-1-yl)phenyl]amino}-8-(1-methyl-1H-pyrazol-4-yl)pyrimido[4,5-d]pyridazin-5(6H)-one]
10.15 | CN1CCN(c2ccc(Nc3ncc4c(=O)n(-c5c(Cl)cccc5Cl)nc(-c5ccn(C)n5)c4n3)cc2)CC1 [Example 151, 6-(2,6-dichlorophenyl)-2-{[4-(4-methylpiperazin-1-yl)phenyl]amino}-8-(1-methyl-1H-pyrazol-3-yl)pyrimido[4,5-d]pyridazin-5(6H)-one]
10.40 | Cc1cc(Nc2ncc3c(=O)n(-c4c(Cl)cccc4Cl)nc(-c4ccn(C)n4)c3n2)ccc1N1CCCN(C)CC1 [Example 152, 6-(2,6-dichlorophenyl)-2-{[3-methyl-4-(4-methyl-1,4-diazepan-1-yl)phenyl]amino}-8-(1-methyl-1H-pyrazol-3-yl)pyrimido[4,5-d]pyridazin-5(6H)-one]
10.30 | CN1Cc2cc(Nc3ncc4c(=O)n(-c5c(Cl)cccc5Cl)nc(-c5ccn(C)n5)c4n3)ccc2C2(CC2)C1 [Example 153, 6-(2,6-dichlorophenyl)-2-[(2′-methyl-2′,3′-dihydro-1′H-spiro[cyclopropane-1,4′-isoquinolin]-7′-yl)amino]-8-(1-methyl-1H-pyrazol-3-yl)pyrimido[4,5-d]pyridazin-5(6H)-one]
8.05 | CN1CCN(c2ccc(Nc3ncc4c(=O)n(-c5ccccc5)nc(-c5ccncc5)c4n3)cc2)CC1 [Example 154, 2-{[4-(4-methylpiperazin-1-yl)phenyl]amino}-6-phenyl-8-(pyridin-4-yl)pyrimido[4,5-d]pyridazin-5(6H)-one]
9.40 | CN1CCN(c2ccc(Nc3ncc4c(=O)n(-c5ccccc5Cl)nc(-c5ccncc5)c4n3)cc2)CC1 [Example 155, 6-(2-chlorophenyl)-2-{[4-(4-methylpiperazin-1-yl)phenyl]amino}-8-(pyridin-4-yl)pyrimido[4,5-d]pyridazin-5(6H)-one]
10.52 | CN1CCN(c2ccc(Nc3ncc4c(=O)n(-c5c(Cl)cccc5Cl)nc(-c5ccncc5)c4n3)cc2)CC1 [Example 156, 6-(2,6-dichlorophenyl)-2-{[4-(4-methylpiperazin-1-yl)phenyl]amino}-8-(pyridin-4-yl)pyrimido[4,5-d]pyridazin-5(6H)-one]
10.30 | CN1CCN(c2ccc(Nc3ncc4c(=O)n(-c5c(Cl)cccc5Cl)nc(-c5cccc(CN6CCCCC6)c5)c4n3)cc2)CC1 [Example 157, 6-(2,6-dichlorophenyl)-2-{[4-(4-methylpiperazin-1-yl)phenyl]amino}-8-[3-(piperidin-1-ylmethyl)phenyl]pyrimido[4,5-d]pyridazin-5(6H)-one]
9.70 | CN1CCN(c2ccc(Nc3ncc4c(=O)n(-c5c(Cl)cccc5Cl)nc(-c5cccc(CNC6CCC6)c5)c4n3)cc2)CC1 [Example 158, 8-{3-[(cyclobutylamino)methyl]phenyl}-6-(2,6-dichlorophenyl)-2-{[4-(4-methylpiperazin-1-yl)phenyl]amino}pyrimido[4,5-d]pyridazin-5(6H)-one]
10.22 | COC(=O)c1cccc(-c2nn(-c3c(Cl)cccc3Cl)c(=O)c3cnc(Nc4ccc(N5CCN(C)CC5)cc4)nc23)n1 [Example 159, methyl 6-[6-(2,6-dichlorophenyl)-2-{[4-(4-methylpiperazin-1-yl)phenyl]amino}-5-oxo-5,6-dihydropyrimido[4,5-d]pyridazin-8-yl]pyridine-2-carboxylate]
10.00 | CN1CCN(c2ccc(Nc3ncc4c(=O)n(-c5c(Cl)cccc5Cl)nc(-c5cccc(C(C)(C)O)n5)c4n3)cc2)CC1 [Example 160, 6-(2,6-dichlorophenyl)-8-[6-(2-hydroxypropan-2-yl)pyridin-2-yl]-2-{[4-(4-methylpiperazin-1-yl)phenyl]amino}pyrimido[4,5-d]pyridazin-5(6H)-one]
8.52 | C=CCn1nc(-c2cccs2)c2nc(Nc3ccc(N4CCN(C(C)C)CC4)c(OC)c3)ncc2c1=O [Example 161, 6-allyl-2-{[4-(4-isopropylpiperazin-1-yl)-3-methoxyphenyl]amino}-8-(2-thienyl)pyrimido[4,5-d]pyridazin-5(6H)-one]
8.40 | C=CCn1nc(-c2cccs2)c2nc(Nc3ccc4c(c3)CN(C)CC4)ncc2c1=O [Example 162, 6-allyl-2-[(2-methyl-1,2,3,4-tetrahydroisoquinolin-7-yl)amino]-8-(2-thienyl)pyrimido[4,5-d]pyridazin-5(6H)-one]
8.40 | C=CCn1nc(-c2cccs2)c2nc(Nc3ccc(N4CCCN(C(C)C)CC4)c(C)c3)ncc2c1=O [Example 163, 6-allyl-2-{[4-(4-isopropyl-1,4-diazepan-1-yl)-3-methylphenyl]amino}-8-(2-thienyl)pyrimido[4,5-d]pyridazin-5(6H)-one]
9.30 | Cc1ccccc1-n1nc(-c2cccs2)c2nc(Nc3ccc4c(c3)CN(C)CC4)ncc2c1=O [Example 164, 6-(2-methylphenyl)-2-[(2-methyl-1,2,3,4-tetrahydroisoquinolin-7-yl)amino]-8-(2-thienyl)pyrimido[4,5-d]pyridazin-5(6H)-one]
